US20250108038A1 (priority 2023, published 2025)

System: HEK293 uptake transporter overexpressing and control cells
Assay: Resazurin-based cytotoxicity assay
Procedure: The cells were plated on 96-well plates. Prior to the experiment the medium was removed, and cells were rinsed with 2×100 μL of the respective buffer for uptake transporter transfected and control cell lines.

[1] = MATE1 assay, 5.00 μM, incubation 30 + 3 min
[2] = MATE1 assay, 10.00 μM, incubation 30 + 3 min
[3] = MATE1 assay, 20.00 μM, incubation 30 + 3 min
[4] = MATE1 assay, 30.00 μM, incubation 30 + 3 min
[5] = MATE2-K assay, 5.00 μM, incubation 30 + 1 min
[6] = MATE2-K assay, 10.00 μM, incubation 30 + 1 min
[7] = MATE2-K assay, 20.00 μM, incubation 30 + 1 min
[8] = MATE2-K assay, 30.00 μM, incubation 30 + 1 min
[9] = OAT1 assay, 5.00 μM, incubation 30 + 2 min
[10] = OAT1 assay, 10.00 μM, incubation 30 + 2 min
[11] = OAT1 assay, 20.00 μM, incubation 30 + 2 min
[12] = OAT1 assay, 30.00 μM, incubation 30 + 2 min
[13] = OAT3 assay, 5.00 μM, incubation 30 + 1 min
[14] = OAT3 assay, 10.00 μM, incubation 30 + 1 min
[15] = OAT3 assay, 20.00 μM, incubation 30 + 1 min
[16] = OAT3 assay, 30.00 μM, incubation 30 + 1 min
[17] = OATP1B1 assay, 5.00 μM, incubation 30 + 3 min
[18] = OATP1B1 assay, 10.00 μM, incubation 30 + 3 min
[19] = OATP1B1 assay, 20.00 μM, incubation 30 + 3 min
[20] = OATP1B1 assay, 30.00 μM, incubation 30 + 3 min
[21] = OATP1B3 assay, 5.00 μM, incubation 30 + 2 min
[22] = OATP1B3 assay, 10.00 μM, incubation 30 + 2 min
[23] = OATP1B3 assay, 20.00 μM, incubation 30 + 2 min
[24] = OATP1B3 assay, 30.00 μM, incubation 30 + 2 min
[25] = OCT1 assay, 5.00 μM, incubation 30 + 3 min
[26] = OCT1 assay, 10.00 μM, incubation 30 + 3 min
[27] = OCT1 assay, 20.00 μM, incubation 30 + 3 min
[28] = OCT1 assay, 30.00 μM, incubation 30 + 3 min
[29] = OCT2 assay, 5.00 μM, incubation 30 + 1 min
[30] = OCT2 assay, 10.00 μM, incubation 30 + 1 min
[31] = OCT2 assay, 20.00 μM, incubation 30 + 1 min
[32] = OCT2 assay, 30.00 μM, incubation 30 + 1 min

## OC1(c2ccc(Cl)cc2)c2ccccc2C2=NCCN21 (stereo not drawn) [Compound A, 5-(4-chlorophenyl)-2,3-dihydroimidazo[1,2-b]isoindol-5-ol, reference compound]
HEK293-MATE1-LV, -MATE2-K-LV, -OAT1-LV, -OAT3-LV, -OATP1B1-LV, -OATP1B3-LV, -OCT1-LV, -OCT2-LV and control cells
  Cell viability (cytotoxic effect): did not reduce the cell viability
[1]
  Relative cell viability, control cells: 99.21 ± 1.16 % of control
  Relative cell viability, transfected cells: 100.44 ± 1.23 % of control
[2]
  Relative cell viability, control cells: 99.15 ± 1.14 % of control
  Relative cell viability, transfected cells: 100.94 ± 1.13 % of control
[3]
  Relative cell viability, control cells: 99.30 ± 1.01 % of control
  Relative cell viability, transfected cells: 101.82 ± 1.13 % of control
[4]
  Relative cell viability, control cells: 99.32 ± 1.20 % of control
  Relative cell viability, transfected cells: 100.38 ± 1.18 % of control
[5]
  Relative cell viability, control cells: 98.30 ± 0.72 % of control
  Relative cell viability, transfected cells: 100.17 ± 1.24 % of control
[6]
  Relative cell viability, control cells: 101.55 ± 0.74 % of control
  Relative cell viability, transfected cells: 99.35 ± 0.57 % of control
[7]
  Relative cell viability, control cells: 99.74 ± 0.77 % of control
  Relative cell viability, transfected cells: 98.93 ± 1.00 % of control
[8]
  Relative cell viability, control cells: 99.57 ± 0.77 % of control
  Relative cell viability, transfected cells: 95.00 ± 1.36 % of control
[9]
  Relative cell viability, control cells: 99.60 ± 2.60 % of control
  Relative cell viability, transfected cells: 101.06 ± 0.56 % of control
[10]
  Relative cell viability, control cells: 102.26 ± 1.66 % of control
  Relative cell viability, transfected cells: 100.28 ± 0.26 % of control
[11]
  Relative cell viability, control cells: 103.10 ± 2.01 % of control
  Relative cell viability, transfected cells: 98.34 ± 0.33 % of control
[12]
  Relative cell viability, control cells: 102.66 ± 2.43 % of control
  Relative cell viability, transfected cells: 93.28 ± 2.26 % of control
[13]
  Relative cell viability, control cells: 98.41 ± 1.36 % of control
  Relative cell viability, transfected cells: 97.17 ± 0.40 % of control
[14]
  Relative cell viability, control cells: 96.14 ± 2.42 % of control
  Relative cell viability, transfected cells: 98.73 ± 0.68 % of control
[15]
  Relative cell viability, control cells: 95.85 ± 2.05 % of control
  Relative cell viability, transfected cells: 97.97 ± 0.89 % of control
[16]
  Relative cell viability, control cells: 98.11 ± 1.29 % of control
  Relative cell viability, transfected cells: 99.16 ± 0.66 % of control
[17]
  Relative cell viability, control cells: 95.83 ± 0.85 % of control
  Relative cell viability, transfected cells: 101.07 ± 0.61 % of control
[18]
  Relative cell viability, control cells: 93.21 ± 2.18 % of control
  Relative cell viability, transfected cells: 102.28 ± 0.69 % of control
[19]
  Relative cell viability, control cells: 96.00 ± 0.81 % of control
  Relative cell viability, transfected cells: 99.79 ± 0.88 % of control
[20]
  Relative cell viability, control cells: 96.60 ± 2.23 % of control
  Relative cell viability, transfected cells: 98.92 ± 1.07 % of control
[21]
  Relative cell viability, control cells: 96.08 ± 0.72 % of control
  Relative cell viability, transfected cells: 99.30 ± 0.80 % of control
[22]
  Relative cell viability, control cells: 93.50 ± 0.99 % of control
  Relative cell viability, transfected cells: 99.16 ± 1.10 % of control
[23]
  Relative cell viability, control cells: 98.24 ± 0.33 % of control
  Relative cell viability, transfected cells: 99.23 ± 0.43 % of control
[24]
  Relative cell viability, control cells: 100.55 ± 0.31 % of control
  Relative cell viability, transfected cells: 99.58 ± 0.58 % of control
[25]
  Relative cell viability, control cells: 95.85 ± 5.15 % of control
  Relative cell viability, transfected cells: 105.13 ± 8.07 % of control
[26]
  Relative cell viability, control cells: 99.88 ± 5.10 % of control
  Relative cell viability, transfected cells: 106.01 ± 8.03 % of control
[27]
  Relative cell viability, control cells: 98.58 ± 5.65 % of control
  Relative cell viability, transfected cells: 105.82 ± 8.04 % of control
[28]
  Relative cell viability, control cells: 102.27 ± 5.38 % of control
  Relative cell viability, transfected cells: 109.22 ± 8.33 % of control
[29]
  Relative cell viability, control cells: 95.32 ± 3.75 % of control
  Relative cell viability, transfected cells: 96.41 ± 1.41 % of control
[30]
  Relative cell viability, control cells: 93.96 ± 4.78 % of control
  Relative cell viability, transfected cells: 97.59 ± 1.08 % of control
[31]
  Relative cell viability, control cells: 96.81 ± 3.07 % of control
  Relative cell viability, transfected cells: 98.80 ± 0.86 % of control
[32]
  Relative cell viability, control cells: 96.68 ± 2.77 % of control
  Relative cell viability, transfected cells: 98.11 ± 0.97 % of control
All uptake transporter overexpressing and control cells
  decrease of the relative cell viability compared to solvent (DMSO): less than 20%
